In patent US20240309028A1, “PHOSPHOLIPID COMPOUNDS AND METHODS OF MAKING AND USING THE SAME” (Gilead Sciences, Inc., priority 2023, published 2024):

Columns and labels:
[1] = test system: Respiratory syncytial virus recombinant with luciferase (RSV-Luc5); assay: NHBE RSV-Luc5 384-well assay (EC50 RSVFLUC NHBE-384); assay type: cell-based; conditions: human respiratory syncytial virus, 72 h, read-out: EC50 RSV FLUC NHBE 384 V2 (per Ex. U)
Source text: Example U. NHBE RSV-Luc5 384-Well Assay (EC50 RSVFLUC NHBE-384)
Normal Human Bronchial Epithelial (NHBE) cells were purchased from Lonza (Walkersville, MD Cat #CC2540) and maintained in BEGM Bronchial Epithelial Cell Growth Medium BulletKit (Lonza CC-3170).
Cells were thawed, expanded, and were used for experiments at passage 2. Respiratory syncytial virus recombinant with luciferase (RSV-Luc5) (≥1×107 Infectious Units/ml (IU/ml) determined by TCID50) was purchased from Microbiologics (Saint Cloud, MN). Viral replication was determined in NHBE cells in the following manner.
Compounds are prepared in 100% DMSO in 384-well polypropylene plates (Greiner, Monroe, NC, Cat #784201) with 8 compounds per plate in grouped replicates of 4 at 10 serially diluted concentrations (1:3). The serially diluted compounds were transferred to low dead volume Echo plates (Labcyte, Sunnyvale, CA, Cat #LP-0200).
The test compounds were spotted to 384-well assay plates (Greiner, Monroe, NC, Cat #781091) at 200 nL per well. NHBE cells were harvested and suspended in BEGM Bronchial Epithelial Cell Growth Medium BulletKit and seeded to the pre-spotted assay plates at 5,000 cells per well in 30 μL. RSV-Luc5 virus was diluted in BEGM Bronchial Epithelial Cell Growth Medium BulletKit at 500,000 Infectious Units (IU) per mL and 10 μL per well was added to the assay plates containing cells and compounds, for an MOI of 1. The assay plates were incubated for 3 days at 37° C. and 5% CO2. At the end of incubation, One-Glo reagent (Promega, Madison, WI, Cat #E6120) was prepared. The assay plates and One-Glo reagent were equilibrated to room temperature for at least 15 minutes. 40 μL per well of One-Glo reagent was added and the plates were incubated at room temperature for 15 minutes before reading the luminescence signal on an En Vision multimode plate reader (Perkin Elmer, Waltham, MA). Remdesivir was used as positive control and DMSO was used as negative control. Values were normalized to the positive and negative controls (as 0% and 100% replication, respectively) and data was fitted using non-linear regression analysis by Gilead's dose response tool. The EC50 value for each compound was defined as the concentration reducing the viral replication by 50%.

[2] = test system: RSV strain A2; assay: RSV Cellomics assay for RSV A2 antiviral activity (EC50-RSV-Hep2-96-Cellomics); assay type: cell-based; conditions: human respiratory syncytial virus, HEp-2, 72 h; Hep2 cells, RSV strain A2, MOI=0.05, 3 days, RSV F protein immunofluorescence; read-out: EC50-RSV-HEp2-96-Cellomics Example B1
Experimental: Example B1: RSV Cellomics Assay for RSV A2 Antiviral Activity (EC50-RSV-Hep2-96-Cellomics)
8×10^3 Hep2 cells are seeded into 96 well plates in 100 μL of media (DMEM supplemented with GlutaMAX, 10% FBS and Pen/Strep) and briefly spun at 50×g for 1 minute to attach cells. Cells were further allowed to attach with overnight incubation at 37° C.+5% CO2. The following day, the media was aspirated and 100 μL of fresh DMEM media containing 2% FBS was added. A three-fold dilution series of compounds of interest are then added to the plate using the Tecan D300e dispenser and the plate is normalized to the well with the highest volume of DMSO. The cells are next infected by adding 100 μL of media containing RSV strain A2 at an MOI=0.05 and the plates incubated for 3 days at 37° C.+5% CO2. Following the incubation, the media is removed, and the cells are washed once with 250 μL PBS and fixed with 250 μL ice-cold 100% methanol for 10 minutes at 4 C. The methanol is then removed and the plates air dried for 5 minutes and then washed once with 250 μL PBS to remove any residual methanol. The wells are then blocked 60 μL/well of BlockAid (B10710, Thermo-Fisher) for 1 hour at RT on rocker at which point the blocking buffer is carefully aspirated. Primary antibody against the RSV F protein (MAB 858-1) is then diluted 1:2000 in SuperBlock (37515, Thermo Fisher) and 50 μL of the primary antibody solution is added to each well. The plates are incubated at room temperature for 1 hour with gentle agitation and then washed with 250 μL of PBS-Tween 3 times. A goat anti-mouse AlexaFluor 647 conjugated secondary antibody (Sigma, A21235) is then diluted 1:2000 and Hoescht 33342 (H3570) at 1:1000 in SuperBlock and 50 μL added to the wells for 1 hour at 37° C. After incubation the antibody solution is aspirated, and the wells are then washed with 250 μL of PBS-Tween 3 times. To keep cells from drying out, 100 μL of PBS is added to each well and the plates are sealed with black plate seal. Fluorescence at the 647 nm wavelength is measured using a Cellomics CellInsight CX7 machine. Compound activity is determined as a percentage of the % positive cells (or average intensity) compared to DMSO treated RSV infected well controls following subtraction of uninfected controls. The EC50 values are then calculated using nonlinear regression analysis in GraphPad Prism.

SMILES	EC50 [1] [nM]	EC50 [2] [nM]
N#Cc1cc(F)cc(CO[C@@H](CCCCCCCCCCCCCCCCCC(F)(F)F)COP(=O)(O)OC[C@@]2(C#N)O[C@@H](c3ccc4c(N)ncnn34)[C@H](O)[C@@H]2O)c1 [Compound 3, ((2R,3S,4R,5S)-5-(4-aminopyrrolo[2,1-f][1,2,4]triazin-7-yl)-2-cyano-3,4-dihydroxytetrahydrofuran-2-yl)methyl ((S)-2-((3-cyano-5-fluorobenzyl)oxy)-20,20,20-trifluoroicosyl) hydrogen phosphate]	44	421
N#Cc1cc(F)cc(CO[C@H](CCCCCCCCCCCCCCCCC(F)F)COP(=O)(O)OC[C@@]2(C#N)O[C@@H](c3ccc4c(N)ncnn34)[C@H](O)[C@@H]2O)c1 [Compound 4, ((2R,3S,4R,5S)-5-(4-aminopyrrolo[2,1-f][1,2,4]triazin-7-yl)-2-cyano-3,4-dihydroxytetrahydrofuran-2-yl)methyl ((R)-2-((3-cyano-5-fluorobenzyl)oxy)-19,19-difluorononadecyl) hydrogen phosphate]	107	170
N#C[C@]1(COP(=O)(O)OCCCCCCCCCCCCCCCCCCCC(F)(F)F)O[C@@H](c2ccc3c(N)ncnn23)[C@H](O)[C@@H]1O [Compound 5, ((2R,3S,4R,5S)-5-(4-aminopyrrolo[2,1-f][1,2,4]triazin-7-yl)-2-cyano-3,4-dihydroxytetrahydrofuran-2-yl)methyl (20,20,20-trifluoroicosyl) hydrogen phosphate]	4460	3420
N#Cc1cc(F)cc(CO[C@@H](CCCCCCCCCCCCCCCCC(F)(F)F)COP(=O)(O)OC[C@@]2(C#N)O[C@@H](c3ccc4c(N)ncnn34)[C@H](O)[C@@H]2O)c1 [Compound 6, ((2R,3S,4R,5S)-5-(4-aminopyrrolo[2,1-f][1,2,4]triazin-7-yl)-2-cyano-3,4-dihydroxytetrahydrofuran-2-yl)methyl ((S)-2-((3-cyano-5-fluorobenzyl)oxy)-19,19,19-trifluorononadecyl) hydrogen phosphate]	86	293
N#C[C@]1(COP(=O)(O)OC[C@H](CCCCCCCCCCCCCCCCCC(F)(F)F)OCc2ccc3ccccc3n2)O[C@@H](c2ccc3c(N)ncnn23)[C@H](O)[C@@H]1O [Compound 7, ((2R,3S,4R,5S)-5-(4-aminopyrrolo[2,1-f][1,2,4]triazin-7-yl)-2-cyano-3,4-dihydroxytetrahydrofuran-2-yl)methyl ((S)-20,20,20-trifluoro-2-(quinolin-2-ylmethoxy)icosyl) hydrogen phosphate]	714	1400
N#Cc1cc(F)cc(CO[C@H](CCCCCCCCCCCCCCCCCCCC(F)(F)F)COP(=O)(O)OC[C@@]2(C#N)O[C@@H](c3ccc4c(N)ncnn34)[C@H](O)[C@@H]2O)c1 [Compound 8, ((2R,3S,4R,5S)-5-(4-aminopyrrolo[2,1-f][1,2,4]triazin-7-yl)-2-cyano-3,4-dihydroxytetrahydrofuran-2-yl)methyl ((R)-2-((3-cyano-5-fluorobenzyl)oxy)-22,22,22-trifluorodocosyl) hydrogen phosphate]	134	237
COc1cc(C#N)ccc1CO[C@@H](CCCCCCCCCCCCCCCCCC(F)(F)F)COP(=O)(O)OC[C@@]1(C#N)O[C@@H](c2ccc3c(N)ncnn23)[C@H](O)[C@@H]1O [Compound 9, ((2R,3S,4R,5S)-5-(4-aminopyrrolo[2,1-f][1,2,4]triazin-7-yl)-2-cyano-3,4-dihydroxytetrahydrofuran-2-yl)methyl ((S)-2-((4-cyano-2-methoxybenzyl)oxy)-20,20,20-trifluoroicosyl) hydrogen phosphate]	265	215
N#Cc1cc(F)cc(CO[C@H](CCCCCCCCCCCCCCCCCC(F)(F)F)COP(=O)(O)OC[C@@]2(C#N)O[C@@H](c3ccc4c(N)ncnn34)[C@H](O)[C@@H]2O)c1 [Compound 10, ((2R,3S,4R,5S)-5-(4-aminopyrrolo[2,1-f][1,2,4]triazin-7-yl)-2-cyano-3,4-dihydroxytetrahydrofuran-2-yl)methyl ((R)-2-((3-cyano-5-fluorobenzyl)oxy)-20,20,20-trifluoroicosyl) hydrogen phosphate]	117	127
CN(C)CCNc1cccc(CO[C@@H](CCCCCCCCCCCCCCCCCC(F)(F)F)COP(=O)(O)OC[C@@]2(C#N)O[C@@H](c3ccc4c(N)ncnn34)[C@H](O)[C@@H]2O)c1 [Compound 11, ((2R,3S,4R,5S)-5-(4-aminopyrrolo[2,1-f][1,2,4]triazin-7-yl)-2-cyano-3,4-dihydroxytetrahydrofuran-2-yl)methyl ((S)-2-((3-((2-(dimethylamino)ethyl)amino)benzyl)oxy)-20,20,20-trifluoroicosyl) hydrogen phosphate]	4590	12600
